Test results taken from ChEMBL document CHEMBL3885881, “DrugMatrix”.

Species: Rattus norvegicus
Test: DrugMatrix - Regimen: Daily Repeat
Type: toxicity, organism-based, Sprague-Dawley
Set-up: regimen Daily Repeat, gender Male, age 6-8 weeks
Conditions: in vivo, iv, 31 mg/kg, dose level Low, vehicle 100 % SALINE; for ABSOLUTE BASOPHIL / ABSOLUTE EOSINOPHIL / ABSOLUTE LYMPHOCYTE / ABSOLUTE MONOCYTE / ABSOLUTE SEGMENTED NEUTROPHIL / BASOPHIL / EOSINOPHIL / ERYTHROCYTE COUNT / HEMATOCRIT / HEMOGLOBIN / LEUKOCYTE COUNT / LYMPHOCYTE / MEAN CORPUSCULAR HEMOGLOBIN / MEAN CORPUSCULAR HEMOGLOBIN CONCENTRATION / MEAN CORPUSCULAR VOLUME / MONOCYTE / NEUTROPHIL / NUCLEATED RED BLOOD CELLS / PLATELET COUNT: tissue Blood; for ALANINE AMINOTRANSFERASE / ALBUMIN / ALKALINE PHOSPHATASE / ASPARTATE AMINOTRANSFERASE / BLOOD UREA NITROGEN / CARBON DIOXIDE / CHLORIDE / CHOLESTEROL / CREATINE PHOSPHOKINASE / CREATININE / GLUCOSE / LACTATE DEHYDROGENASE / LIPASE / PHOSPHORUS / POTASSIUM / SODIUM / TOTAL BILIRUBIN / TOTAL PROTEIN / URIC ACID: tissue Plasma

Cc1cn[nH]c1 [FOMEPIZOLE]
ABSOLUTE BASOPHIL (72 h, time 3 day): 0 CELLS/uL | ABSOLUTE EOSINOPHIL (72 h, time 3 day): 41 CELLS/uL | ABSOLUTE LYMPHOCYTE (72 h, time 3 day): 12783.33 CELLS/uL | ABSOLUTE MONOCYTE (72 h, time 3 day): 137 CELLS/uL | ABSOLUTE SEGMENTED NEUTROPHIL (72 h, time 3 day): 738.67 CELLS/uL | BASOPHIL (72 h, time 3 day): 0% | EOSINOPHIL (72 h, time 3 day): 0.33% | ERYTHROCYTE COUNT (72 h, time 3 day): 5.82 x10E6/uL | HEMATOCRIT (72 h, time 3 day): 35.33% | HEMOGLOBIN (72 h, time 3 day): 13.87 G/DL | LEUKOCYTE COUNT (72 h, time 3 day): 13.7 x10E3/uL | LYMPHOCYTE (72 h, time 3 day): 93.33% | MEAN CORPUSCULAR HEMOGLOBIN (72 h, time 3 day): 23.83 pg | MEAN CORPUSCULAR HEMOGLOBIN CONCENTRATION (72 h, time 3 day): 39.27 G/DL | MEAN CORPUSCULAR VOLUME (72 h, time 3 day): 60.67 fL | MONOCYTE (72 h, time 3 day): 1% | NEUTROPHIL (72 h, time 3 day): 5.33% | NUCLEATED RED BLOOD CELLS (72 h, time 3 day): 0 /100WBC | PLATELET COUNT (72 h, time 3 day): 1326.67 x10E3/uL | ALANINE AMINOTRANSFERASE (72 h, time 3 day): 46.33 u/L | ALBUMIN (72 h, time 3 day): 4.27 G/DL | ALKALINE PHOSPHATASE (72 h, time 3 day): 429.67 u/L | ASPARTATE AMINOTRANSFERASE (72 h, time 3 day): 79 u/L | BLOOD UREA NITROGEN (72 h, time 3 day): 14.67 mg/dL | CARBON DIOXIDE (72 h, time 3 day): 23.67 mmol/L | CHLORIDE (72 h, time 3 day): 103.67 MEQ/L | CHOLESTEROL (72 h, time 3 day): 67.67 mg/dL | CREATINE PHOSPHOKINASE (72 h, time 3 day): 240.33 u/L | CREATININE (72 h, time 3 day): 0.15 mg/dL | GLUCOSE (72 h, time 3 day): 166.33 mg/dL | LACTATE DEHYDROGENASE (72 h, time 3 day): 139.67 u/L | LIPASE (72 h, time 3 day): 9.33 u/L | PHOSPHORUS (72 h, time 3 day): 13.53 mg/dL | POTASSIUM (72 h, time 3 day): 6.4 MEQ/L | SODIUM (72 h, time 3 day): 147.03 MEQ/L | TOTAL BILIRUBIN (72 h, time 3 day): 0.2 mg/dL | TOTAL PROTEIN (72 h, time 3 day): 5.77 G/DL | URIC ACID (72 h, time 3 day): 1.67 mg/dL | ABSOLUTE BASOPHIL (120 h, time 5 day): 0 CELLS/uL | ABSOLUTE EOSINOPHIL (120 h, time 5 day): 0 CELLS/uL | ABSOLUTE LYMPHOCYTE (120 h, time 5 day): 17243.67 CELLS/uL | ABSOLUTE MONOCYTE (120 h, time 5 day): 226 CELLS/uL | ABSOLUTE SEGMENTED NEUTROPHIL (120 h, time 5 day): 1697 CELLS/uL | BASOPHIL (120 h, time 5 day): 0% | EOSINOPHIL (120 h, time 5 day): 0% | ERYTHROCYTE COUNT (120 h, time 5 day): 5.34 x10E6/uL | HEMATOCRIT (120 h, time 5 day): 34.37% | HEMOGLOBIN (120 h, time 5 day): 13.8 G/DL | LEUKOCYTE COUNT (120 h, time 5 day): 19.17 x10E3/uL | LYMPHOCYTE (120 h, time 5 day): 89.67% | MEAN CORPUSCULAR HEMOGLOBIN (120 h, time 5 day): 25.9 pg | MEAN CORPUSCULAR HEMOGLOBIN CONCENTRATION (120 h, time 5 day): 40.17 G/DL | MEAN CORPUSCULAR VOLUME (120 h, time 5 day): 64.4 fL | MONOCYTE (120 h, time 5 day): 1.33% | NEUTROPHIL (120 h, time 5 day): 9% | NUCLEATED RED BLOOD CELLS (120 h, time 5 day): 0 /100WBC | PLATELET COUNT (120 h, time 5 day): 1415 x10E3/uL | ALANINE AMINOTRANSFERASE (120 h, time 5 day): 63.33 u/L | ALBUMIN (120 h, time 5 day): 4.27 G/DL | ALKALINE PHOSPHATASE (120 h, time 5 day): 350 u/L | ASPARTATE AMINOTRANSFERASE (120 h, time 5 day): 91 u/L | BLOOD UREA NITROGEN (120 h, time 5 day): 15.33 mg/dL | CARBON DIOXIDE (120 h, time 5 day): 21.67 mmol/L | CHLORIDE (120 h, time 5 day): 103.33 MEQ/L | CHOLESTEROL (120 h, time 5 day): 77 mg/dL | CREATINE PHOSPHOKINASE (120 h, time 5 day): 195 u/L | CREATININE (120 h, time 5 day): 0.2 mg/dL | GLUCOSE (120 h, time 5 day): 155.67 mg/dL | LACTATE DEHYDROGENASE (120 h, time 5 day): 131 u/L | LIPASE (120 h, time 5 day): 10.67 u/L | PHOSPHORUS (120 h, time 5 day): 13.77 mg/dL | POTASSIUM (120 h, time 5 day): 6.85 MEQ/L | SODIUM (120 h, time 5 day): 145.9 MEQ/L | TOTAL BILIRUBIN (120 h, time 5 day): 0.17 mg/dL | TOTAL PROTEIN (120 h, time 5 day): 5.93 G/DL | URIC ACID (120 h, time 5 day): 1.7 mg/dL
